Results: patent publication US20050171185A1, “Indole derivatives” (Fujisawa Pharmaceutical Co., Ltd., a Japanese corporation, priority 1998, published 2005)

System: db/db mice
Assay: Test for activity of decreasing plasma glucose using db/db mice
Type: in vivo
Conditions: female db/db mice, test compound mixed in powdered chow (0.01%) for 14 days, dose 3.2 mg/kg; difference between db/db and +/+ mouse groups defined as 100%
Text: Test Example: Test for Activity of Decreasing Plasma Glucose Using db/db Mice
3-(1-bromonaphthalen-2-ylmethyl)-5-((5-chloro-2-thiophenylsulfonyl)carbamoyl)-2-methylindole (Compound (23))
Five-week-old female mice [C57BL/KsJ-dbm db+/db+, C57BL/KsJ-dbm +m/+m (Jackson Laboratory)] were purchased, and were kept for 2 to 3 weeks. Then, these mice were used in the test.
A test compound was mixed with a powdered chow (CE-2, made by Nippon Clea) using a mortar. The mixing ratio was 0.01%. The mixed chow was changed twice a week for each group. The feed amount and the remaining amount were recorded, and the intake was calculated from the difference therebetween.
The female db/db mice were grouped according to the body weight, the plasma glucose, and the plasma triglyceride concentrations. […] Plasma glucose, triglyceride, and insulin concentrations were measured on day 0 and day 14 as well as plasma glucose and triglyceride concentrations on day 7. The body weight was measured on day 0, day 7, and day 14. […]
The plasma glucose was measured by a glucose oxidase method (Glucose CII-Test Wako made by Wako Pure Chemical Industries, Ltd.) using from 10 to 15 μl of plasma. The plasma triglyceride concentration was measured by a GPO-p-chlorophenol method (Triglyceride G-Test Wako made by Wako Pure Chemical Industries, Ltd.) or a GPO-DAOS method (Triglyceride E-Test Wako) using from 10 to 15 μl of plasma. […]

## Cc1[nH]c2ccc(C(=O)NS(=O)(=O)c3ccc(Cl)s3)cc2c1Cc1ccc2ccccc2c1Br [Compound (23), 3-((1-bromonaphthalen-2-yl)methyl)-5-((5-chloro-2-thiophenesulfonyl)carbamoyl)-2-methylindole]
  TG concentration-decreasing activity (rate of decrease in plasma triglyceride): 9%
  plasma glucose decreasing activity (rate of decrease in plasma glucose): 19%
